Test system: targetomes of let-7, miR-1, miR-9, miR-29, miR-30, miR-107 and miR-181
Test: RNA-Seq of miRNA targetomes in DM myoblasts and myotubes
Format: cell-based, human
Description: As described in Example 3, total RNA was isolated from DM-patient and healthy cells, and cDNA libraries were prepared for three conditions (healthy volunteer (HV); DM; DM+Compound II) for DM1 and DM2 backgrounds. The expression levels of predicted targetomes of miRNAs let-7, miR-1, miR-9, miR-29, miR-30, miR-107 and miR-181 were then compared, using miR-122 as well as more than 2,000 transcripts that are not predicted targets of any miRNA as negative controls. Three pair-wise comparisons were performed to measure: i) how a targetome varies between healthy and diseased cells (HV versus DM), ii) how a targetome responds to treatment with the inventive compounds (DM versus DM+Compound II) and, iii) how a Compound II-treated DM-targetome compares to that of a healthy signature. For each pair-wise comparison, the third dataset was used as a reference and the fold changes were calculated for each target transcript (e.g. DM1 vs. DM1+Compound II, with fold changes calculated relative to HV).
Primary myoblasts or myotubes derived from DM1 or DM2 patient samples and non-DM healthy control individuals were cultured for 90% confluence and then treated with 120 μM Compound II for 72 h. Myoblasts were harvested by trypsinization, and separately myotubes were isolated by a minimal trypsin treatment followed by gentle centrifugation to sediments to separate them from the remaining mono-nucleated cells. Cell pellets were washed with PBS and RNA isolation was performed with Trizol® by using the Dircet-zol™ RNA MiniPrep Plus Kit (ZYMO Research, Freiburg, Germany). Library preparation was performed using the TruSeq Stranded mRNA Kit (Illumina, San Diego, CA, USA) with the TruSeq RNA Single Index Set A (Illumina) according to the recommended procedure. Quality and size distribution of the generated libraries was validated using an Agilent 2100 bioanalyzer with high-sensitivity RNA chip (Agilent) and RNA yield was measured using the Qubit […] HS Assay Kit followed by pooling of the libraries in batches of 12 and sequencing of […] pooled library on an Nextseq 500/High Output Flow Cell Cartridge using a paired end, 2×76 reads, single index protocol.
RNA-Seq reads were mapped to the human genome (build GRCh38) using STAR (Dobin et al., (2013). STAR: ultrafast universal RNA-seq aligner. Bioinformatics 29, 15-21) with gene annotations from gencode (www.gencodegenes.org; version 40). Reads mapping uniquely to exons were counted for each gene using htseq-count (Anders et al., (2015). HTSeq—a Python framework to work with high-throughput sequencing data. Bioinformatics 31, 166-169) with the parameter -s reverse and -m intersection_strict. Expression levels were quantified as TPM (transcripts per million), by dividing read counts by the total exon length for each gene, and then normalising by the sum of all values in each sample and multiplying by one million. Fold changes were calculated between the average expression levels in three conditions: DMSO-treated healthy volunteer samples (HV), DMSO-treated DM patient samples (DM), and Compound II-treated DM patient samples (DM+Compound II). Genes with an average TPM>1 were considered in each of these three conditions. For myoblasts, three samples were included for all conditions. For myotubes, three samples were included for the HV, DM1 and DM2 conditions, but two Compound II-treated samples were excluded (one DM1 and one DM2) due to a very low read count (<500000 exonic reads), resulting in […] and two DM2+Compound II myotube samples being included in the analysis. Cumulative density functions of expression changes of miRNA target genes were plotted using custom python scripts.

## CC(=O)N(C)c1cccc(-c2ccc3nnc(C)n3n2)c1 [Compound II]
DM1 and DM2 cells, FIGS. 5B, 5D, 6B and 6D
  shift of the targetomes of the miRNAs tested versus healthy volunteers: levels comparable to those of healthy volunteers
DM1 myoblasts, 120 μM, 72 h, RNA-Seq
  median suppression of the targetomes of let-7 and miRs -9, -1, -29, -30, -107, -181: 10-12%
DM1 myoblasts, FIG. 5B
  CDF curves of DM1+Compound II versus HV targetome signature for miR-1, miR-9, miR-29, miR-30 and miR-107: indistinguishable overlay
DM1 myotubes, 120 μM, 72 h, RNA-Seq
  median suppression of the seven miRNA targetomes: 12-15%
DM2 myoblasts, 120 μM, 72 h, RNA-Seq
  median suppression of the seven targetomes: 22-25%
DM2 myoblasts, FIG. 5D
  targetome shift versus HV signature: overshoot
DM2 myotubes, 120 μM, 72 h, RNA-Seq
  median suppression of the seven miRNA targetomes: 10-12%
